Test results from patent US9517202B2, “Phospholipid depot” (LATITUDE PHARMACEUTICALS INC., priority 2009, dated 2016).

Assay: Injectability test: force to extrude from 1 cc syringe through 25 G ½ inch needle at 2 cc/min
Assay type: physicochemical
Settings: 25 G ½ inch long needle
Excerpt: A major disadvantage of the polymer depots is that they require large diameter needles for injection or implantation due to the physical size of the microcapsules/microspheres and/or the high viscosity of the polymer gel. For example, 14- or 16-gauge (G) needles are required for implantation of Zoladex™ and 18 G or 20 G needles for injection of Eligard™. However, in common medical practice, needles of size greater than 21 G are generally not used for injection because they cause significant pain and psychological trauma for patients. […] The injectability or ease with which the end user can self-inject through such a system will be key to such a drug's user compliance and therapeutic efficacy. For discussion purposes herein, the injectability of a syringe-administered depot is quantitatively defined as meeting the “Acceptable Injectability Criterion” if it requires an applied force of no more than 10 pounds to be extruded from a 1 cc syringe through a 25 G ½ inch long needle at rate of 2 cc/min.
The phrase “Acceptable Injectability Criterion” as used herein includes quantitatively defining a formulation that requires an applied force of no more than 10 pounds to extrude the formulation from a 1 cc syringe through a 25 G ½ inch long needle at rate of 2 cc/min. […]
F-43 was a translucent one-phase gel. The injectability of F-43 was determined against the Acceptable Injectability Criterion. […]

maximum injection force: approximately 8 pounds
Structure (SMILES): OCC(O)CO [glycerin]
